Reference: patent US20250171437A1 (Agios Pharmaceuticals,Inc., priority 2022, published 2025)

molecular target: T1, human PAH with the R408W mutation (A375 R408W cells) (Homo sapiens, UniProt P00439, R408W); experiment: Cell Based Phenylalanine Flux Assay; settings: A375 R408W cells; 24 hrs with compound, then 20 μM sepiapterin and 800 μM 13C9,15N-Phenylalanine for 4 hours; 13C-Tyrosine by LC-MS; average where tested multiple times
T1 construct: expressed in transfected cells
T1 sequence (P00439 1-452 R408W): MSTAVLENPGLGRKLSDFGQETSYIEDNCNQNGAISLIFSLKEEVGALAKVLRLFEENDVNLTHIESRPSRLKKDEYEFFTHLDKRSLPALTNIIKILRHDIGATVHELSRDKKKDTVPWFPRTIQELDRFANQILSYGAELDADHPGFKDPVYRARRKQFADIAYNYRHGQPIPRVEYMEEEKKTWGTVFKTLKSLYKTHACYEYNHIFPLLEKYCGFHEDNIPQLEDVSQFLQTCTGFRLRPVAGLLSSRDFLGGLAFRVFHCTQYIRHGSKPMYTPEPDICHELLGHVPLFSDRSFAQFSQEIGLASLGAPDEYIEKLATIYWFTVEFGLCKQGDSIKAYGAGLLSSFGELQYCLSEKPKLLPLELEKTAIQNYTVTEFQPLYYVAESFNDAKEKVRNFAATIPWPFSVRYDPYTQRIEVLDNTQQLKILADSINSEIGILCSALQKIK
Outline: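 LC-MS quantitation of 13C-tyrosine in media gave AC50 values. Stable A375 R408W PAH cells were preincubated 24 h with compound, then fed 800 μM labelled Phe plus 20 μM sepiapterin for 4 h. Dose curves were 10-point, tested in duplicate, averaged over repeat runs.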

| AC50 [nM] | SMILES |
| --- | --- |
| 1000 to 5000 | Cc1cc(F)ccc1-c1nnc(C(=O)N2CCc3[nH]cnc3[C@@H]2c2nc3cc(F)ccc3o2)o1 [Example 78, (R)-(5-(4-fluoro-2-methylphenyl)-1,3,4-oxadiazol-2-yl)(4-(5-fluorobenzo[d]oxazol-2-yl)-6,7-dihydro-1H-imidazo[4,5-c]pyridin-5(4H)-yl)methanone] |
| 1000 to 5000 | O=C(c1ocnc1C(F)(F)F)N1CCc2[nH]cnc2[C@@H]1c1nc2cc(F)ccc2o1 [Example 24] |
| 1000 to 5000 | O=C(c1oc(-c2ccncn2)nc1C(F)F)N1CCc2[nH]cnc2[C@@H]1c1nc2cc(F)ccc2o1 [Example 525, (R)-(4-(difluoromethyl)-2-(pyrimidin-4-yl)oxazol-5-yl)(4-(5-fluorobenzo[d]oxazol-2-yl)-6,7-dihydro-1H-imidazo[4,5-c]pyridin-5(4H)-yl)methanone] |
| 500 to 1000 | O=C(c1cnn2cc(N3CCOCC3)ccc12)N1CCc2[nH]cnc2[C@H]1c1nc2c(F)cccc2o1 [Example 504, (S)-(4-(4-fluorobenzo[d]oxazol-2-yl)-6,7-dihydro-1H-imidazo[4,5-c]pyridin-5(4H)-yl)(6-morpholinopyrazolo[1,5-a]pyridin-3-yl)methanone] |
| 500 to 1000 | O=C(c1cnn2cc(-c3ccccn3)ccc12)N1CCc2[nH]cnc2[C@H]1c1nc2cc(F)ccc2o1 [Example 81, (S)-(4-(5-fluorobenzo[d]oxazol-2-yl)-6,7-dihydro-1H-imidazo[4,5-c]pyridin-5(4H)-yl)(6-(pyridin-2-yl)pyrazolo[1,5-a]pyridin-3-yl)methanone] |
| 1000 to 5000 | O=C(CC1CC(F)C1)N1CCc2[nH]cnc2[C@@H]1c1nc2cc(F)ccc2o1 (stereo partly drawn) [Example 60, (R)-1-(4-(5-fluorobenzo[d]oxazol-2-yl)-6,7-dihydro-1H-imidazo[4,5-c]pyridin-5(4H)-yl)-2-(3-fluorocyclobutyl)ethanone] |
| 1000 to 5000 | Cc1nn(C)cc1-c1nnc(C(=O)N2CCc3[nH]cnc3[C@@H]2c2nc3cc(F)ccc3o2)o1 [Example 882, (R)-(5-(1,3-dimethyl-1H-pyrazol-4-yl)-1,3,4-oxadiazol-2-yl)(4-(5-fluorobenzo[d]oxazol-2-yl)-6,7-dihydro-1H-imidazo[4,5-c]pyridin-5(4H)-yl)methanone] |
| 1000 to 5000 | O=C(c1ccnn1C(F)F)N1CCc2[nH]cnc2[C@@H]1c1nc2c(F)cccc2o1 [Example 202, (R)-(1-(difluoromethyl)-1H-pyrazol-5-yl)(4-(4-fluorobenzo[d]oxazol-2-yl)-6,7-dihydro-1H-imidazo[4,5-c]pyridin-5(4H)-yl)methanone] |
| 500 to 1000 | O=C(c1nnc(-c2ccccn2)o1)N1CCc2[nH]cnc2[C@H]1c1nc2cc(F)ccc2o1 [Example 39, (S)-(4-(5-fluorobenzo[d]oxazol-2-yl)-6,7-dihydro-1H-imidazo[4,5-c]pyridin-5(4H)-yl)(5-(pyridin-2-yl)-1,3,4-oxadiazol-2-yl)methanone] |
| 1000 to 5000 | O=C(c1cnc(-c2ccccn2)s1)N1CCc2[nH]cnc2[C@@H]1c1nc2cc(F)ccc2o1 [Example 6, (R)-(4-(5-fluorobenzo[d]oxazol-2-yl)-6,7-dihydro-1H-imidazo[4,5-c]pyridin-5(4H)-yl)(2-(pyridin-2-yl)thiazol-5-yl)methanone] |
| 1000 to 5000 | COc1ccc2c(C(=O)N3CCc4[nH]cnc4[C@@H]3c3nc4c(F)cccc4o3)cnn2c1 [Example 540, (R)-(4-(4-fluorobenzo[d]oxazol-2-yl)-6,7-dihydro-1H-imidazo[4,5-c]pyridin-5(4H)-yl)(6-methoxypyrazolo[1,5-a]pyridin-3-yl)methanone] |

More lines, now with the values behind:

| SMILES | AC50 [nM] |
| --- | --- |
| O=C(CCc1cncs1)N1CCc2[nH]cnc2[C@H]1c1nc2cccc(F)c2o1 [Example 409, (S)-1-(4-(7-fluorobenzo[d]oxazol-2-yl)-6,7-dihydro-1H-imidazo[4,5-c]pyridin-5(4H)-yl)-3-(thiazol-5-yl)propan-1-one] | 500 to 1000 |
| Cc1ccc2oc([C@H]3c4nc[nH]c4CCN3C(=O)c3nnc(-c4ccn(C)n4)o3)nc2c1 [Example 390, (R)-(5-(1-methyl-1H-pyrazol-3-yl)-1,3,4-oxadiazol-2-yl)(4-(5-methylbenzo[d]oxazol-2-yl)-6,7-dihydro-1H-imidazo[4,5-c]pyridin-5(4H)-yl)methanone] | 1000 to 5000 |
| CC(C)n1ncnc1C(=O)N1CCc2[nH]cnc2[C@H]1c1nc2cccc(F)c2o1 [Example 707, (S)-(4-(7-fluorobenzo[d]oxazol-2-yl)-6,7-dihydro-1H-imidazo[4,5-c]pyridin-5(4H)-yl)(1-isopropyl-1H-1,2,4-triazol-5-yl)methanone] | ≤ 500 |
| Cc1ccc2oc([C@@H]3c4nc[nH]c4CCN3C(=O)c3oc(C(C)(C)O)nc3C(F)F)nc2c1 [Example 311, (S)-(4-(difluoromethyl)-2-(2-hydroxypropan-2-yl)oxazol-5-yl)(4-(5-methylbenzo[d]oxazol-2-yl)-6,7-dihydro-1H-imidazo[4,5-c]pyridin-5(4H)-yl)methanone] | ≤ 500 |
| O=C(c1ocnc1C(F)F)N1CCc2[nH]cnc2[C@@H]1c1nc2cc(Cl)ccc2o1 [Example 377, (R)-(4-(5-chlorobenzo[d]oxazol-2-yl)-6,7-dihydro-1H-imidazo[4,5-c]pyridin-5(4H)-yl)(4-(difluoromethyl)oxazol-5-yl)methanone] | 500 to 1000 |
| Cc1cccc2nc([C@H]3c4nc[nH]c4CCN3C(=O)c3nc(C(F)(F)F)nn3C)oc12 [Example 686, (R)-(1-methyl-3-(trifluoromethyl)-1H-1,2,4-triazol-5-yl)(4-(7-methylbenzo[d]oxazol-2-yl)-6,7-dihydro-1H-imidazo[4,5-c]pyridin-5(4H)-yl)methanone] | 1000 to 5000 |
| CC(C)(O)c1nc(C(F)F)c(C(=O)N2CCc3[nH]cnc3[C@@H]2c2nc3cccc(F)c3o2)o1 [Example 194, (R)-(4-(difluoromethyl)-2-(2-hydroxypropan-2-yl)oxazol-5-yl)(4-(7-fluorobenzo[d]oxazol-2-yl)-6,7-dihydro-1H-imidazo[4,5-c]pyridin-5(4H)-yl)methanone] | ≤ 500 |
| CC(C)(O)c1nc(Cl)c(C(=O)N2CCc3[nH]cnc3[C@H]2c2nc3cccc(F)c3o2)o1 [Example 272, (S)-(4-chloro-2-(2-hydroxypropan-2-yl)oxazol-5-yl)(4-(7-fluorobenzo[d]oxazol-2-yl)-6,7-dihydro-1H-imidazo[4,5-c]pyridin-5(4H)-yl)methanone] | ≤ 500 |
| FC(F)(F)c1nnc(N2Cc3[nH]cnc3[C@H]2c2nc3ccccc3o2)o1 [Example 946, (S)-2-(5-(5-(trifluoromethyl)-1,3,4-oxadiazol-2-yl)-1,4,5,6-tetrahydropyrrolo[3,4-d]imidazol-4-yl)benzo[d]oxazole] | 1000 to 5000 |
| Cc1cc(F)c2oc([C@@H]3c4nc[nH]c4CCN3C(=O)c3ocnc3C(F)F)nc2c1 [Example 501, (S)-(4-(difluoromethyl)oxazol-5-yl)(4-(7-fluoro-5-methylbenzo[d]oxazol-2-yl)-6,7-dihydro-1H-imidazo[4,5-c]pyridin-5(4H)-yl)methanone] | ≤ 500 |
| CC(C)(O)c1nc(C(F)F)c(C(=O)N2CCc3[nH]cnc3[C@H]2c2nc3cccc(Cl)c3o2)o1 [Example 423, (S)-(4-(7-chlorobenzo[d]oxazol-2-yl)-6,7-dihydro-1H-imidazo[4,5-c]pyridin-5(4H)-yl)(4-(difluoromethyl)-2-(2-hydroxypropan-2-yl)oxazol-5-yl)methanone] | ≤ 500 |
| Cn1ccc(-c2nc(C(F)F)c(C(=O)N3CCc4[nH]cnc4[C@@H]3c3nc4ccccc4o3)o2)n1 [Example 762, (R)-(4-(benzo[d]oxazol-2-yl)-6,7-dihydro-1H-imidazo[4,5-c]pyridin-5(4H)-yl)(4-(difluoromethyl)-2-(1-methyl-1H-pyrazol-3-yl)oxazol-5-yl)methanone] | 1000 to 5000 |
| O=C(c1oc(-c2cccnc2)nc1C(F)F)N1CCc2[nH]cnc2[C@H]1c1nc2cccc(F)c2o1 [Example 590, (S)-(4-(difluoromethyl)-2-(pyridin-3-yl)oxazol-5-yl)(4-(7-fluorobenzo[d]oxazol-2-yl)-6,7-dihydro-1H-imidazo[4,5-c]pyridin-5(4H)-yl)methanone] | ≤ 500 |

same assay, conditions: A375 cells expressing R408W PAH; 24 hrs with compound, then 20 μM sepiapterin and 800 μM 13C9,15N-Phenylalanine for 4 hours; 13C-Tyrosine by LC-MS; average where tested multiple times

| AC50 [nM] | SMILES |
| --- | --- |
| ≥ 5000 | CNCc1ccc2c(C(=O)N3CCc4[nH]cnc4C3c3nc4cc(F)ccc4o3)cnn2c1 (stereo not drawn) |
| 1000 to 5000 | Cn1nc(Cl)nc1C(=O)N1CCc2[nH]cnc2C1c1nc2cc(F)ccc2o1 (stereo not drawn) |
| 1000 to 5000 | O=C(c1cnn2cc(CN3CC(F)C3)ccc12)N1CCc2[nH]cnc2C1c1nc2cc(F)ccc2o1 (stereo not drawn) |
| 1000 to 5000 | O=C(c1cnn2cc(N3CCC(O)CC3)ccc12)N1CCc2[nH]cnc2C1c1nc2ccccc2o1 (stereo not drawn) |
| ≥ 5000 | COc1ccc2oc(C3c4nc[nH]c4CCN3C(=O)c3cnco3)nc2c1 (stereo not drawn) |

More lines, now with the values behind:

| SMILES | AC50 [nM] |
| --- | --- |
| Cn1nc(C(F)F)nc1C(=O)N1CCc2[nH]cnc2C1c1nc2c(F)c(F)ccc2o1 (stereo not drawn) | 1000 to 5000 |
| Cn1ncnc1C(=O)N1CCc2[nH]cnc2C1c1nc2c(F)cccc2o1 (stereo not drawn) | 1000 to 5000 |
| CC(C)(O)c1noc(C(=O)N2CCc3[nH]cnc3C2c2nc3cccc(F)c3o2)n1 (stereo not drawn) | 1000 to 5000 |
| CC(C)(O)c1cc(C(=O)N2CCc3[nH]cnc3C2c2nc3cccc(F)c3o2)no1 (stereo not drawn) | 1000 to 5000 |
